Assay in all cases: NCI-60 cell line screen, 48 h
The subject of test [1] is CAKI-1 renal.
The test system of test [2] is CCRF-CEM leukemia.
Test [3] concerns COLO 205 colon.
Test [4] concerns HCC-2998 colon.
The test system of test [5] is LOX IMVI melanoma.
In test [6] the test system is SR leukemia.
For test [7], the system named is TK-10 renal.
In test [8] the test system is UACC-257 melanoma.
Test [9] concerns MALME-3M melanoma.
In test [10] the test system is NCI-H226 lung.

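Exposure lasted 48 hours, with cells grown in 96-well plates and compounds tested at five concentrations. Abbreviation: GI50, concentration required for 50% inhibition of growth. TGI denotes the concentration required for complete inhibition of growth.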 Some results are limits rather than exact numbers.

For `NCCCOc1cc2ccccc2cc1C(=O)Nc1ccc(Cl)cc1OC(=O)c1cc2ccccc2cc1OCCCN`, the GI50 in test [1] is 1.4 µM; in test [2] it was 0.413 µM; in test [3] it was 1.27 µM; in [4] it was 1.43 µM; in test [5], 0.162 µM; in test [6], 0.257 µM. The figures for the GI50 in [7] and in [8] were 0.545 µM and 1.01 µM, respectively. Moreover, the TGI stood at 4.12 µM in [1]; 1.39 µM in test [2]; 2.63 µM in test [3]; 2.82 µM in test [4]; 0.316 µM in test [5]; 1.48 µM in test [6]. Besides, the TGI in [7] was 1.07 µM; in test [8] it was 2.32 µM.
Consider `N#Cc1c(-c2ccccc2)cc(-c2ccc(N)cc2)[nH]c1=O`, for which the TGI in test [2], in test [3], in test [4], in [5], in test [9] and in [10] was more than 100 µM throughout. In addition, the TGI in test [6], in test [7] and in [8] was more than 100 µM in each case.
Consider `CCC/C=C\C=C\C1(NS(=O)(=O)c2ccc(C)cc2)CCC(C(C)(C)C)CC1` (stereo not drawn), for which the TGI in test [1] was found to be 61.9 µM; in test [2], 24.2 µM; in test [3], 28.1 µM; in test [4], 34.3 µM; in test [9], 47.9 µM; in test [10], 38 µM. Also, the TGI was determined as 14.8 µM in test [6], 69.9 µM in test [7] and 39 µM in test [8].
With `O=C1/C(=C/c2ccc3c(c2)OCCO3)CCC/C1=C\c1ccc2c(c1)OCCO2`, the TGI was more than 100 µM in test [1]; more than 100 µM in [2]; 46.8 µM in [3]; more than 100 µM in test [4]; more than 100 µM in test [5]; more than 100 µM in [9]. Further, the TGI in test [6] is 85.8 µM; in test [7], more than 100 µM; in test [8] it was 59.7 µM.
`COc1ccc(/C(C)=N/NC(=O)CSc2nc3ccccc3c(=O)n2CCc2ccc(S(N)(=O)=O)cc2)cc1`: the GI50 is 2.07 µM in test [1]; 4.44 µM in [2]; 9.26 µM in [4]; 1.72 µM in test [9]; 1.95 µM in [10]; 2.52 µM in [6]. Further, the GI50 in test [7] was 1.95 µM; in test [8], 2.39 µM. Moreover, the TGI is 4.53 µM in test [1]; more than 100 µM in test [2]; 28.6 µM in test [4]; 3.44 µM in [9]; 4.18 µM in test [10]; more than 100 µM in test [6]. Further, the TGI in [7] turned out to be 3.98 µM; in test [8] it was 5.57 µM.
`O=C1C(=C2CCCC2)CCC1CN1CCCCC1` (stereo not drawn): the TGI in [2] came out at 36.6 µM; in test [3], 73.5 µM; in [4], 29.8 µM; in [9], 30.5 µM; in [6], 47.1 µM; in test [7], 27.1 µM. For the same compound, the TGI in test [8] amounted to 34.8 µM.
For the compound `O=c1c2ccccc2[nH]c2c(O)ccc(O)c12`, the TGI was 30.4 µM in test [1]; more than 88.6 µM in test [2]; more than 100 µM in test [4]; 33.9 µM in [5]; 59.7 µM in [9]; 66.4 µM in test [10]. For the same compound, the figures for the TGI in [6], in test [7] and in test [8] were 39.2 µM, 52.6 µM and 34.6 µM, respectively.
For `O=c1c2cc(Br)cc(Br)c2nc(CCCl)n1-c1ccc(O)c([N+](=O)[O-])c1`, the TGI came out at 43.7 µM in test [2]; 36.3 µM in test [3]; 32.4 µM in test [4]; 36.4 µM in [9]; 37.1 µM in [10]; 65.4 µM in [6]. In addition, the TGI in test [7] was found to be 32.7 µM; in test [8], 29.4 µM.
For the compound `Nc1c(C(=O)Nc2ccccn2)sc2nc3c(cc12)C(O)CCC3` (stereo not drawn), the GI50 is 2.92 µM in test [1]; 0.906 µM in [2]; 2.51 µM in [3]; 1.85 µM in [4]; 3.09 µM in test [5]; 19.3 µM in test [9]. In addition, the GI50 in test [10] is more than 50 µM; in test [6] it was 0.179 µM; in [8], more than 50 µM. Moreover, the TGI in test [1], in test [2], in [3], in test [4], in test [5] and in test [9] was more than 50 µM throughout. In addition, the TGI in test [10], in [6] and in test [8] was more than 50 µM throughout.
Take `COc1ccc(C(C)c2cc(OC)c(OC)c(OC)c2)cc1` (stereo not drawn): the GI50 in test [2] was 0.182 µM; in [3], 0.109 µM; in test [4], 0.21 µM; in [5], 0.537 µM; in [10], 46.5 µM; in test [6], 0.0303 µM. In addition, the GI50 in test [7] is more than 50 µM; in test [8] it was 32.3 µM. Further, the TGI in test [2] was more than 50 µM; in test [3] it was 0.325 µM; in [4], more than 50 µM; in test [5] it was more than 50 µM; in [10], more than 50 µM; in test [6] it was more than 50 µM. Besides, the TGI in [7] and in test [8] was more than 50 µM in each case.
As for `CC1=CC(C)(c2c[nH]c3ccccc23)CC(C)(C)c2c1[nH]c1ccccc21` (stereo not drawn), the TGI in [2] is 31.7 µM; in test [4], 30.4 µM; in test [5], 31.5 µM; in [9], 35 µM; in test [10], 37.1 µM; in [6], 32 µM. In addition, the TGI is more than 100 µM in test [7] and 41.2 µM in test [8].
For the compound `COCCOCCOCc1n(Cc2ccc3ccccc3c2)c2ccccc2[n+]1Cc1ccc2ccccc2c1`, the GI50 in [2] was 0.488 µM; in test [3], 0.27 µM; in [4] it was 0.56 µM; in test [5], 0.419 µM; in [9], 0.351 µM; in [10], 0.957 µM. Further, the results for the GI50 in [6], in test [7] and in test [8] were 0.36 µM, 0.772 µM and 0.289 µM, respectively. For the same compound, the TGI is 2.29 µM in test [2]; 1.15 µM in test [3]; 2.06 µM in [4]; 1.67 µM in test [5]; 1.38 µM in [9]; 2.53 µM in test [10]. Moreover, the TGI is 1.6 µM in [6], 2.15 µM in [7] and 0.988 µM in test [8].

Values taken from PubChem BioAssay (NCI).
